Test system: coronary arteries
Test: Swine stent model: coated stents implanted in coronary arteries, light microscopy and morphometry
Details: for Stenosis (%): (Neointimal Area/IEL Area)x100; for EEL Area / IEL Area / Intimal Area / Intimal Thick. / Lumen Area: PolySAID II coating alone or with 20% added drug by weight
From the text: A total of 8 stents were implanted in the coronary arteries of 3 miniswine for 28 days. The stent implants were Polymerix [nicknamed MARGI] 15 mm in length with an unexpanded diameter of 1.6 mm.
All stents were processed for light microscopic evaluation. Before processing, the vessels and hearts were x-rayed to locate and assess stent placement. For processing, the stented vessel segments were dehydrated in a graded series of ethanol and embedded in methylmethacrylate plastic. After polymerization, two to three millimeter sections were sawed from the proximal, mid and distal portions of each stent. Sections from the stents were cut on a rotary microtome at four to five microns, mounted and stained with hematoxylin and eosin and elastic Van Gieson stains. All sections were examined by light microscopy for the presence of inflammation, thrombus, neointimal formation, vessel wall injury and potential localized toxic effects associated with drug-coated stents.
Myocardial sections were taken from the anterior, lateral, posterior and septal walls of the left ventricle distal to the stent and from the apical region of the left ventricle. To determine localized affects of the polymer and/or drug, the myocardium was also sampled beneath the area of stent placement. All sections were cut at 4-6 microns; mounted and stained with hematoxylin and eosin and examined for the presence of infarct, thromboembolus and inflammation.
A vessel injury score was calculated according to the Schwartz method. The cross-sectional areas (external elastic lamina [EEL], internal elastic lamina [IEL] and lumen) of each section were measured with digital morphometry. Neointimal thickness was measured as the distance from the inner surface of each stent strut to the luminal border. Percent area stenosis was calculated with the formula [(Neointimal Area/IEL Area)×100]. Ordinal data was also collected for fibrin deposition and inflammation and hemorrhage around the stent struts and percent endothelialization of the lumen surfaces. Values are expressed as mean±SD. Mean variables were compared between the groups with the use of ANOVA with Fishers Post Hoc Correction for analysis of the data. A value of P≦0.05 was considered statistically significant.

[1] = miniswine coronary arteries, stents 28 days

% Struts (Fibrin) (miniswine, in vivo, 28 days) [%] | % Struts Hemorrhage (miniswine, in vivo, 28 days) [%] | Ave Inflammation score (miniswine, in vivo, 28 days) | SMILES | light microscopy findings (vessel healing, neointima) (in vivo) | Stenosis (%) [1] [%] | EEL Area [1] [mm2] | IEL Area [1] [mm2] | Intimal Area [1] | Intimal Thick. [1] [mm] | Lumen Area [1] [mm2] | % Struts with underlying medial necrosis (miniswine, in vivo, 28 days) [%] | Injury Score (miniswine, in vivo, 28 days) | % Struts (Fibrin) [1] [%] | % Struts Hemorrhage [1] [%] | % Struts with underlying medial necrosis [1] [%] | Ave Inflammation score [1] | light microscopy findings (vessel healing, neointima) [1] | Injury Score (miniswine coronary arteries, stents 28 days, Schwartz method)
57.78 ± 43.47 | 28.33 ± 30.14 | 2.3 ± 0.58 | CO[C@H]1C[C@@H]2CC[C@@H](C)[C@@](O)(O2)C(=O)C(=O)N2CCCC[C@H]2C(=O)O[C@H]([C@H](C)C[C@@H]2CC[C@@H](O)[C@H](OC)C2)CC(=O)[C@H](C)/C=C(\C)[C@@H](O)[C@@H](OC)C(=O)[C@H](C)C[C@H](C)/C=C/C=C/C=C/1C [Sirolimus, sirolimus] | less neointimal growth and were more healed than those coated with paclitaxel | 20.31 ± 10.1 | 6.07 ± 0.61 | 4.78 ± 0.39 | 0.96 ± .50 mm2 | 0.10 ± 0.05 | 3.81 ± 0.62 | 0.68 ± 0.68 | 0.45 ± 0.69 |  |  |  |  |  | 
 |  |  | CC(=O)O[C@H]1C(=O)[C@@]2(C)[C@H]([C@H](OC(=O)c3ccccc3)[C@]3(O)C[C@H](OC(=O)[C@H](O)[C@@H](NC(=O)c4ccccc4)c4ccccc4)C(C)=C1C3(C)C)[C@]1(OC(C)=O)CO[C@@H]1C[C@@H]2O [Paclitaxel, paclitaxel] |  | 27.21 ± 17.11 | 8.41 ± 2.95 | 6.84 ± 2.56 | 2.14 ± 2.10 mm2 | 0.05 ± 0.01 | 4.70 ± 0.64 |  |  | 100 | 100 | 8.67 ± 3.51 | 2.0 | malapposition with underlying medial necrosis with extensive accumulation of fibrin, hemorrhage, and inflammatory cells around the stent struts | 0.35 ± 0.48

— patent publication US7985415B2, “Medical devices employing novel polymers” (Rutgers, The State University of New Jersey, priority 1997, dated 2011)
